Assay results: patent US7964531B2, “3-phenoxy-4-pyridazinol derivatives and herbicidal composition containing the same” (Mitsui Chemicals Agro, Inc., priority 2001, dated 2011)

How the values were obtained:
Type in all cases: in vivo
Settings in all cases: after 25 days
[1] = tested on: transplanted paddy-field rice; assay: Test Example 4: crop injury against transplanted paddy-field rice
Description: (§1) Paddy filed soil was filled in 1/5000 are Wagner pot, seeds of barnyardgrass (Echinochloa oryzicola Vasing.), Scirpus joncoides and annual broad-leaved weeds (Lindernia spp. and Rotala indica) which are awaken from dormancy were mixed at the surface layer of 1 cm. Also, tubers of Cyperus serotinus, Sagittaria pygmaea and Eleocharis kuroguwai which are awaken from dormancy were planted, and further seedlings of paddy-field rice at 2.2-leaf stage were transplanted and they were grown under the flooded condition in a greenhouse. After 3 days from the transplanting, a predetermined chemical dosage of the wettable powder prepared in accordance with Preparation example 5 was diluted with water, and applied to the pot. After 25 days, herbicidal effects and crop injury against transplanted paddy-field rice were judged according to the following judgment standard, and the results were shown in Table 5. Incidentally, “-” in the table means a composition containing no effective ingredient.
(§2) Judgment Standard • 0: Growth-inhibition rate; 0 to 15% • 1: Growth inhibition rate; 16 to 35% • 2: Growth inhibition rate; 36 to 55% • 3: Growth inhibition rate; 56 to 75% • 4: Growth inhibition rate; […] • 5: Growth inhibition rate; 96 to 100%.

Cyperus serotinus = assay: Test Example 4: herbicidal effects of mixed wettable powder, paddy-field pot test
Description: as §1, §2

Eleocharis kuroguwai = assay: as above
Description: as §1, §2

Sagittaria pygmaea = assay: as above
Description: as §1, §2

[2] = tested on: barnyardgrass (Echinochloa oryzicola Vasing.); assay: as above
Description: as §1, §2

[3] = tested on: annual broad-leaved weeds (Lindernia spp. and Rotala indica); assay: as above
Description: as §1, §2

Scirpus joncoides = assay: as above
Description: as §1, §2

SMILES: Cc1ccc(S(=O)(=O)Oc2c(C(=O)c3ccc(Cl)cc3Cl)c(C)nn2C)cc1 [Compound A, 4-(2,4-dichlorobenzoyl)-1,3-dimethyl-5-pyrazolyl-p-toluenesulfonate, reference compound]
- Crop injury against transplanted rice ([1]; second compound alone 5 g/a): 0 (Growth-inhibition rate; 0 to 15%)
- Crop injury against transplanted rice ([1]; second compound alone 30 g/a): 0 (Growth-inhibition rate; 0 to 15%)
- Herbicidal effects Cyperus serotinus (Cyperus serotinus; second compound alone 5 g/a): 2 (Growth inhibition rate; 36 to 55%)
- Herbicidal effects Cyperus serotinus (Cyperus serotinus; second compound alone 30 g/a): 4 (Growth inhibition rate; 7.6 to 95%)
- Herbicidal effects Eleocharis kuroguwai (Eleocharis kuroguwai; second compound alone 5 g/a): 0 (Growth-inhibition rate; 0 to 15%)
- Herbicidal effects Eleocharis kuroguwai (Eleocharis kuroguwai; second compound alone 30 g/a): 2 (Growth inhibition rate; 36 to 55%)
- Herbicidal effects Sagittaria pygmaea (Sagittaria pygmaea; second compound alone 5 g/a): 4 (Growth inhibition rate; 7.6 to 95%)
- Herbicidal effects Sagittaria pygmaea (Sagittaria pygmaea; second compound alone 30 g/a): 5 (Growth inhibition rate; 96 to 100%)
- Herbicidal effects Barnyard grass ([2]; second compound alone 5 g/a): 3 (Growth inhibition rate; 56 to 75%)
- Herbicidal effects Barnyard grass ([2]; second compound alone 30 g/a): 5 (Growth inhibition rate; 96 to 100%)
- Herbicidal effects Broad leaf ([3]; second compound alone 5 g/a): 4 (Growth inhibition rate; 7.6 to 95%)
- Herbicidal effects Broad leaf ([3]; second compound alone 30 g/a): 5 (Growth inhibition rate; 96 to 100%)
- Herbicidal effects Scirpus joncoides (Scirpus joncoides; second compound alone 5 g/a): 3 (Growth inhibition rate; 56 to 75%)
- Herbicidal effects Scirpus joncoides (Scirpus joncoides; second compound alone 30 g/a): 4 (Growth inhibition rate; 7.6 to 95%)

SMILES: Cc1nn(C)c(OCC(=O)c2ccccc2)c1C(=O)c1ccc(Cl)cc1Cl [Compound B, 2-[4-(2,4-dichlorobenzoyl)-1,3-dimethylpyrazol-5-yloxy]acetophenone, reference compound]
- Crop injury against transplanted rice ([1]; second compound alone 5 g/a): 0 (Growth-inhibition rate; 0 to 15%)
- Crop injury against transplanted rice ([1]; second compound alone 30 g/a): 0 (Growth-inhibition rate; 0 to 15%)
- Herbicidal effects Cyperus serotinus (Cyperus serotinus; second compound alone 5 g/a): 2 (Growth inhibition rate; 36 to 55%)
- Herbicidal effects Cyperus serotinus (Cyperus serotinus; second compound alone 30 g/a): 4 (Growth inhibition rate; 7.6 to 95%)
- Herbicidal effects Eleocharis kuroguwai (Eleocharis kuroguwai; second compound alone 5 g/a): 0 (Growth-inhibition rate; 0 to 15%)
- Herbicidal effects Eleocharis kuroguwai (Eleocharis kuroguwai; second compound alone 30 g/a): 2 (Growth inhibition rate; 36 to 55%)
- Herbicidal effects Sagittaria pygmaea (Sagittaria pygmaea; second compound alone 5 g/a): 4 (Growth inhibition rate; 7.6 to 95%)
- Herbicidal effects Sagittaria pygmaea (Sagittaria pygmaea; second compound alone 30 g/a): 5 (Growth inhibition rate; 96 to 100%)
- Herbicidal effects Barnyard grass ([2]; second compound alone 5 g/a): 3 (Growth inhibition rate; 56 to 75%)
- Herbicidal effects Barnyard grass ([2]; second compound alone 30 g/a): 5 (Growth inhibition rate; 96 to 100%)
- Herbicidal effects Broad leaf ([3]; second compound alone 5 g/a): 4 (Growth inhibition rate; 7.6 to 95%)
- Herbicidal effects Broad leaf ([3]; second compound alone 30 g/a): 5 (Growth inhibition rate; 96 to 100%)
- Herbicidal effects Scirpus joncoides (Scirpus joncoides; second compound alone 5 g/a): 3 (Growth inhibition rate; 56 to 75%)
- Herbicidal effects Scirpus joncoides (Scirpus joncoides; second compound alone 30 g/a): 4 (Growth inhibition rate; 7.6 to 95%)

SMILES: Cc1ccc(C(=O)COc2c(C(=O)c3c(Cl)ccc(C)c3Cl)c(C)nn2C)cc1 [Compound C, 2-[4-(2,4-dichloro-m-toluoyl)-1,3-dimethylpyrazol-5-yloxy]-4′-methyl-acetophenone, reference compound]
- Crop injury against transplanted rice ([1]; second compound alone 5 g/a): 0 (Growth-inhibition rate; 0 to 15%)
- Crop injury against transplanted rice ([1]; second compound alone 30 g/a): 0 (Growth-inhibition rate; 0 to 15%)
- Herbicidal effects Cyperus serotinus (Cyperus serotinus; second compound alone 5 g/a): 1 (Growth inhibition rate; 16 to 35%)
- Herbicidal effects Cyperus serotinus (Cyperus serotinus; second compound alone 30 g/a): 4 (Growth inhibition rate; 7.6 to 95%)
- Herbicidal effects Eleocharis kuroguwai (Eleocharis kuroguwai; second compound alone 5 g/a): 0 (Growth-inhibition rate; 0 to 15%)
- Herbicidal effects Eleocharis kuroguwai (Eleocharis kuroguwai; second compound alone 30 g/a): 2 (Growth inhibition rate; 36 to 55%)
- Herbicidal effects Sagittaria pygmaea (Sagittaria pygmaea; second compound alone 5 g/a): 4 (Growth inhibition rate; 7.6 to 95%)
- Herbicidal effects Sagittaria pygmaea (Sagittaria pygmaea; second compound alone 30 g/a): 5 (Growth inhibition rate; 96 to 100%)
- Herbicidal effects Barnyard grass ([2]; second compound alone 5 g/a): 3 (Growth inhibition rate; 56 to 75%)
- Herbicidal effects Barnyard grass ([2]; second compound alone 30 g/a): 5 (Growth inhibition rate; 96 to 100%)
- Herbicidal effects Broad leaf ([3]; second compound alone 5 g/a): 5 (Growth inhibition rate; 96 to 100%)
- Herbicidal effects Broad leaf ([3]; second compound alone 30 g/a): 5 (Growth inhibition rate; 96 to 100%)
- Herbicidal effects Scirpus joncoides (Scirpus joncoides; second compound alone 5 g/a): 2 (Growth inhibition rate; 36 to 55%)
- Herbicidal effects Scirpus joncoides (Scirpus joncoides; second compound alone 30 g/a): 4 (Growth inhibition rate; 7.6 to 95%)
